Measurements: ChEMBL document CHEMBL1201862, “PubChem BioAssay data set” (2004)
Values belong to the compound of their own block, whether it stands above or below them. The source made the active and inactive calls.

Tests used:
Estrogen receptor beta = Estrogen receptor beta (Homo sapiens, UniProt Q92731);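 also: recombinant ER-beta bound to coactivator SRC1 peptide in presence of estradiol agonist; inhibitors block coactivator peptide binding and lower the FRET signal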
[1] = target: Disintegrin and metalloproteinase domain-containing protein 17 (Homo sapiens, UniProt P78536); assay: ADAM17 protease inhibitors, dose response, counter-screen for ADAM10 exosite inhibitor project, biochemical, quenched FRET substrate (AID 743253)
[2] = ADAM10 inhibitors, peptide cleavage, dose response, biochemical, QFRET (AID 743254);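 also: ADAM10 enzyme with the DM2 quenched FRET peptide as substrate; EDANS fluorescence gain as the protease cuts the substrate; inhibitor potency against ADAM10 proteolytic activity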
[3] = Luminescence Cell-Based Dose Confirmation HTS to Identify Inhibitors of Platelet Dense Granule Release. [Related pubchem assays: 1663 (Primary HTS), 1678 (Summary of Project)]; assay type: functional
[4] = target: E3 ubiquitin-protein ligase Mdm2 (Homo sapiens, UniProt Q00987); assay: enhancers of MDM2-luciferase reporter signal, concentration-effect titration, project on inhibitors of MDM2 ubiquitin ligase, cellular assay, luminescent readout, 384-well plate format (AID 1394); assay type: functional;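 also: MDM2 E3 inhibitors raise luminescence so EC50 is for signal enhancement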
[5] = target: Luciferin 4-monooxygenase (Photinus pyralis, UniProt P08659); assay: firefly luciferase enzyme inhibitors, dose response, biochemical, luminescence (AID 1891)
[6] = Counterscreen for inhibitors of Trypanosoma brucei methionyl tRNA synthetase (MetRS): Luminescence-based cell-based high throughput dose response assay to identify compounds that are cytotoxic to Jurkat human T lymphocyte cells.; assay type: functional
[7] = Late stage counterscreen for inhibitors of Trypanosoma brucei methionyl tRNA synthetase (MetRS): Luminescence-based cell-based high throughput dose response assay to identify compounds that are cytotoxic to Jurkat human T lymphocyte cells.; assay type: functional
[8] = target: T1, Methionyl-tRNA synthetase, putative (Trypanosoma brucei brucei, UniProt Q38C91); assay type: functional, Trypanosoma brucei brucei strain 927/4 GUTat10.1
T1 sequence (Q38C91 whole entry): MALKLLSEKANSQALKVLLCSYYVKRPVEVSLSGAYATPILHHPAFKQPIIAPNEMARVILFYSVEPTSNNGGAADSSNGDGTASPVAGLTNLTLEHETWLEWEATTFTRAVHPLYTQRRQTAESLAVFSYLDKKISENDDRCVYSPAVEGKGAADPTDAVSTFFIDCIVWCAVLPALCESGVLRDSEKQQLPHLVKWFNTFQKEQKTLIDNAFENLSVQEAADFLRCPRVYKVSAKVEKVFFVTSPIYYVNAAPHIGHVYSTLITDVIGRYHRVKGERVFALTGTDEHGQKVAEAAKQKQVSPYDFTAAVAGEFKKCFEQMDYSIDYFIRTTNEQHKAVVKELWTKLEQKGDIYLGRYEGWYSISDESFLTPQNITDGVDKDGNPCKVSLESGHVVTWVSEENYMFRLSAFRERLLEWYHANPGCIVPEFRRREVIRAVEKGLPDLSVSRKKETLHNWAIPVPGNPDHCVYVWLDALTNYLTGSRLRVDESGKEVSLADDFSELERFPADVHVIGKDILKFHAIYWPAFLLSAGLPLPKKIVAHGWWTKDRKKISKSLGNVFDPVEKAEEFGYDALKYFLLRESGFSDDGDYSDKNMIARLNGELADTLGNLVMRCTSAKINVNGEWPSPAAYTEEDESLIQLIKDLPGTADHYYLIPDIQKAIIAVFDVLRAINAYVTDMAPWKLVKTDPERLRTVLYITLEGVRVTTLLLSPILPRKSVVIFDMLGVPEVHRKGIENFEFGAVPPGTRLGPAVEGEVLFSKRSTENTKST

[9] = target: T1, Methionyl-tRNA synthetase, putative; assay type: functional, Trypanosoma brucei brucei strain 927/4 GUTat10.1; remark: listed apart in the source
[10] = LGR2 antagonists, dose response, cell-based, HEK293, CRE-luciferase reporter, cherry pick, set 2 (AID 743343); assay type: functional;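 also: transfected cells were stimulated with diluted bursicon conditioned medium after compound addition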
[11] = HepG2 cell cytotoxicity, dose response, cytotoxicity control, plate reader, cherry-pick, antagonist series (AID 743416); assay type: functional, cell-based
[12] = target: T2, Corticotropin-releasing factor receptor 2/Corticotropin-releasing factor-binding protein (Homo sapiens, UniProt P24387+Q13324); assay: activators of CRF receptor 2 with binding protein – uHTS hits, confirmation (AID 602473); assay type: functional; settings: read-out: EC50_Mean
T2 sequence (Q13324 whole entry): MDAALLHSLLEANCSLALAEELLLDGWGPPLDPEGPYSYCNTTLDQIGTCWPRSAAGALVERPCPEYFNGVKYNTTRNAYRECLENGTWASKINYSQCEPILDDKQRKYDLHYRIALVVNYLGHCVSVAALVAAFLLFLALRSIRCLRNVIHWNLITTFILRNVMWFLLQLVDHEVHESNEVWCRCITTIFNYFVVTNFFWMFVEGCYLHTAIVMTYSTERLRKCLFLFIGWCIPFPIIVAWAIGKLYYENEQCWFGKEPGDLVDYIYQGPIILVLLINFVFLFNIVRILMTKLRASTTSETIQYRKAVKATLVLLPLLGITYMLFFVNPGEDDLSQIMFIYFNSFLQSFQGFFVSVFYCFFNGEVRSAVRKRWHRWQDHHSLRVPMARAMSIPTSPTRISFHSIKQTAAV
T2 sequence (P24387 whole entry): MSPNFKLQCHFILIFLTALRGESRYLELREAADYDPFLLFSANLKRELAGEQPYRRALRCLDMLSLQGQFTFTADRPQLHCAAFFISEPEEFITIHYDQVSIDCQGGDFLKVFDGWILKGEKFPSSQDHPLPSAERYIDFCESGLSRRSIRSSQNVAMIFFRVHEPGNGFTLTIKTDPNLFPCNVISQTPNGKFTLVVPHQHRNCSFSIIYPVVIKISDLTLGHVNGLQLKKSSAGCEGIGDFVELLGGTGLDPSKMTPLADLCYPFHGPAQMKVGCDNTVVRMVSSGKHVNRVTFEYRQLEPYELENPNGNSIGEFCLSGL

HEK293 = assay: inhibitors of LMP1-driven NF-kB reporter, dose response, cell-based, HEK293, luciferase, cherry-pick (AID 588343); assay type: functional; settings: Homo sapiens
[13] = A549 cell cytotoxicity, dose response, cytotoxicity control, plate reader, cherry-pick, antagonist series (AID 743412); assay type: functional, cell-based
[14] = ZM109 Env clade C HIV-1 fusion inhibitors, dose response, HeLa effector, CEM target cells, luciferase, cherry-pick (AID 652058); assay type: functional, cell-based
[15] = inhibitors of clade B AD8 Env fusion, dose response, cell-based, cherry-pick (AID 652062); assay type: functional;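 also: luciferase signal from cell-cell fusion driven by HIV-1 clade B AD8 Env; potency is for inhibitors of fusion seen as a drop in luminescence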
[16] = MC4R antagonists, dose response, counter-screen for LGR2 antagonist project, cell-based, plate reader, cherry pick (AID 743444); assay type: functional;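 also: transfected HEK 293 cells stimulated with alpha-MSH peptide; potency of inhibitors of the alpha-MSH evoked signal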
[17] = inhibitors of HIV Env-driven cell fusion, dose response, cherry-pick (AID 652057); assay type: functional, cell-based
[18] = HEK293 cell cytotoxicity, dose response, cytotoxicity control, plate reader, cherry-picked samples (AID 743446); assay type: functional, cell-based
[19] = CEM21 lymphoblast cell cytotoxicity, dose response, cytotoxicity control for viral fusion inhibitor project, CellTiter-Glo luminescence, cherry-picked (AID 652042); assay type: functional, cell-based;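 also: potency for signal decrease meaning cytotoxicity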
Paired box protein Pax-8 = Paired box protein Pax-8 (Homo sapiens, UniProt Q06710); assay: inhibitors of PAX8-driven TPO luciferase reporter, dose response, RMG-I cells, cherry-pick (AID 687027); assay type: functional, cell-based;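 also: luciferase reporter driven by Pax8 target thyroperoxidase promoter measured by SteadyGlo luminescence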
[20] = non-specific cell cytotoxicity, dose response, cytotoxicity control for PAX8 inhibitor project, plate reader, dry powder samples (AID 743021); assay type: functional, cell-based
[21] = off-target signal loss in HeLa-CEM21 co-culture – HeLa F-luc CTL cells, cherry-picked, counter-screen for HIV-1 Env fusion inhibitor project, dose response (AID 652040); assay type: functional, cell-based;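 also: potency for signal decrease marking cytotoxic or nonspecific inhibition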

Disintegrin and metalloproteinase domain-containing protein 17, sequence (P78536 whole entry, the tested form may be a part): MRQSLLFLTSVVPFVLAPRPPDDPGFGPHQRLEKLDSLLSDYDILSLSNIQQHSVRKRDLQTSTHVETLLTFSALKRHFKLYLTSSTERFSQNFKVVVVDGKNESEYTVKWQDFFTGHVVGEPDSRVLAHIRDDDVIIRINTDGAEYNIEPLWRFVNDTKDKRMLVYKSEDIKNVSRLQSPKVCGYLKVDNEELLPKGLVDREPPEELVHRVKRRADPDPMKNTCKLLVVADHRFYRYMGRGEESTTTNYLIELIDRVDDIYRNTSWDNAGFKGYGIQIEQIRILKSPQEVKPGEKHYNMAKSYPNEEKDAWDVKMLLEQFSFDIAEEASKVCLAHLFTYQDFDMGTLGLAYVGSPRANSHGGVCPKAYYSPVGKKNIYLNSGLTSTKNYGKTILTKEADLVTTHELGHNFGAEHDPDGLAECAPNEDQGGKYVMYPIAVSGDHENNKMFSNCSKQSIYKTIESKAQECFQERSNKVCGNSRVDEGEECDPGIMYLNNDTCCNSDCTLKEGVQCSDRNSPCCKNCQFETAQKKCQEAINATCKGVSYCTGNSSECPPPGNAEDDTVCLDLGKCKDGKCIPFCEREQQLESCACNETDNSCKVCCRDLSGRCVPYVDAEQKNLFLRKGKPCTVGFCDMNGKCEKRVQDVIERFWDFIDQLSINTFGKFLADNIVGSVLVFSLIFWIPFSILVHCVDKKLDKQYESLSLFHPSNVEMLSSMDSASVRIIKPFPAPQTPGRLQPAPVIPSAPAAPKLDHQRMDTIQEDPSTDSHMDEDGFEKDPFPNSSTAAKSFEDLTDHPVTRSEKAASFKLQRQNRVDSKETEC
Estrogen receptor beta, sequence (Q92731 whole entry, the tested form may be a part): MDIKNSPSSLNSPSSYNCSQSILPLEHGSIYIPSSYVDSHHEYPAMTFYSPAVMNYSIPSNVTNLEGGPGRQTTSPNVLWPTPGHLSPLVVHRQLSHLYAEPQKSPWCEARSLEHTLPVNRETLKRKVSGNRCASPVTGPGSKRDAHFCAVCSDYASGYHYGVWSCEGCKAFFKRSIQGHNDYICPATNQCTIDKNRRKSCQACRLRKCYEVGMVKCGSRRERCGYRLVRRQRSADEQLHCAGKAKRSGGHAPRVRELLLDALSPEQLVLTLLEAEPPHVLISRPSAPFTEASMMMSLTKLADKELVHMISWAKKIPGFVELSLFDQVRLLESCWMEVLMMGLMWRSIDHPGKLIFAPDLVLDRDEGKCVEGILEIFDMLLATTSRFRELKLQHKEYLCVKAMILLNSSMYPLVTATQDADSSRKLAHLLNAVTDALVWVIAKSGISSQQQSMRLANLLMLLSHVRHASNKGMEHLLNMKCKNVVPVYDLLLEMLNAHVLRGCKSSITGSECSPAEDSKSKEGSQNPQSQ
E3 ubiquitin-protein ligase Mdm2, sequence (Q00987 whole entry): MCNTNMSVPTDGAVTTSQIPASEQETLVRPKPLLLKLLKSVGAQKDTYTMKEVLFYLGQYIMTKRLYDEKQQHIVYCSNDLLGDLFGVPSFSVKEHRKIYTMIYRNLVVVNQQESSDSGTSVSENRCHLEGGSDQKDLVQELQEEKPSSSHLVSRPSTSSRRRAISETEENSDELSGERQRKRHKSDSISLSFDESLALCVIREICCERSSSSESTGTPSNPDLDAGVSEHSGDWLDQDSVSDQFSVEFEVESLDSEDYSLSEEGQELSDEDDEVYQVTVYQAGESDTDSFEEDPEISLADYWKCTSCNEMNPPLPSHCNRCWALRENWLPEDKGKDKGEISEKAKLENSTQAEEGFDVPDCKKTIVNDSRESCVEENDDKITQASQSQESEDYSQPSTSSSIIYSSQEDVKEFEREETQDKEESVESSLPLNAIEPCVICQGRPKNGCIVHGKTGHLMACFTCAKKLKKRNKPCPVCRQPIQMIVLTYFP
Paired box protein Pax-8, sequence (Q06710 whole entry): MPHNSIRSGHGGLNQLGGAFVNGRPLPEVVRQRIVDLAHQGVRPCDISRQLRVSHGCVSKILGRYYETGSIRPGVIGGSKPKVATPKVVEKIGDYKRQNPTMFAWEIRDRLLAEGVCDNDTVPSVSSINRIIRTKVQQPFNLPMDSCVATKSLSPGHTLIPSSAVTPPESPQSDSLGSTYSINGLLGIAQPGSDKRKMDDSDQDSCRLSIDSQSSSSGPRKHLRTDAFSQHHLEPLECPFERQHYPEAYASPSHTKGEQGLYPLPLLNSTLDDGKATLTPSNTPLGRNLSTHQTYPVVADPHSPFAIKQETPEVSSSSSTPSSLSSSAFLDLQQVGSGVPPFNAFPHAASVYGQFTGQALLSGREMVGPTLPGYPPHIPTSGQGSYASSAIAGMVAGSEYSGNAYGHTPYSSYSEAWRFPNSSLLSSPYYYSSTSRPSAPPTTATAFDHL
Luciferin 4-monooxygenase, sequence (P08659 whole entry): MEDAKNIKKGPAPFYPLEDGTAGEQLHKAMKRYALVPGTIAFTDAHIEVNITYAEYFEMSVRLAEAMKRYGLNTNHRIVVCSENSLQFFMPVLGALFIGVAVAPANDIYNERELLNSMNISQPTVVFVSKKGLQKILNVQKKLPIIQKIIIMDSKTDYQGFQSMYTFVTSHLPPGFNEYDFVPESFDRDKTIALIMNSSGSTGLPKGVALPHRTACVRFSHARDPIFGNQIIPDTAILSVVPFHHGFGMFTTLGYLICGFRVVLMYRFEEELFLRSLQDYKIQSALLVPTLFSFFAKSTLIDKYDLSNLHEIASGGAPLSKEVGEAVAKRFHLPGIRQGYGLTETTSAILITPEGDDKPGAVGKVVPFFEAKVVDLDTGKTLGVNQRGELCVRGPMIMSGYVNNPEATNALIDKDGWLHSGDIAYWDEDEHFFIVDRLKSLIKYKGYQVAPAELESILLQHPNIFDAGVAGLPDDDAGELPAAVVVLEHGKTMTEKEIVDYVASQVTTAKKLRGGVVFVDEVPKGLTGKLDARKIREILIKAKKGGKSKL

IC50 (Estrogen receptor beta): > 50 µM (not active)
SMILES: O=C(OCC(=O)N1CCCC1)c1cncc(Br)c1

IC50 [1]: 14.5 µM (inactive)
SMILES: Cc1ccc(C(=S)NCS(=O)(=O)c2ccc(C)cc2)cc1

IC50 [2]: > 69.5 µM (inactive)
IC50 [1]: > 69.5 µM (inactive)
SMILES: CCCCn1c(SCc2nc(N)nc(Nc3ccccc3C)n2)nc2ccccc2c1=O

EC50 [4]: 7.39 µM (not active)
SMILES: COc1ccc2[nH]c3c(N4CC(C)OC(C)C4)ncnc3c2c1 (centres undefined)

IC50 (Estrogen receptor beta): > 50 µM (not active)
SMILES: CC(C)CC(OC(=O)c1cccs1)C(=O)NCc1ccco1 (centres undefined)

IC50 [2]: 10.6 µM (inactive)
IC50 [1]: > 69.5 µM (inactive)
SMILES: CC(C)(C)c1ccc(-c2nnc(SCC(=O)Nc3ccc(S(=O)(=O)Nc4nccs4)cc3)n2-c2ccc(Cl)cc2)cc1

Second part, the compound before the results:

SMILES: O=C(Cc1ccc(-n2c(=O)c3ccccc3n(Cc3ccccc3Cl)c2=O)cc1)NCC1CCCO1 (centres undefined)
EC50 [3]: > 112 µM (not active)
EC50 [4]: 8.14 µM (not active)
EC50 [5]: > 112 µM (not active)

SMILES: O=C(Cn1cnc2ccccc21)Nc1cccc([N+](=O)[O-])c1
IC50 [6]: 83.1 µM (inactive)
IC50 [7]: > 83.3 µM (inactive)
IC50 [8]: 3.47 µM (active)
IC50 [9]: 1.76 µM (active)

SMILES: COc1ccc2[nH]c3nc(SCC(=O)Nc4ccc5c(c4)OCO5)nnc3c2c1
IC50 [6]: 24.5 µM (inactive)
IC50 [7]: 36.6 µM (inactive)
IC50 [8]: 1.33 µM (active)
IC50 [9]: 0.489 µM (active)

SMILES: C(=Cc1cnc2ccccc2n1)c1ccc2c(c1)OCO2
AC50 [10]: 0.263 µM (active)
AC50 [11]: 24.6 µM (active)
EC50 [12]: > 53 µM (inactive)
AC50 (HEK293): 0.173 µM (active)
AC50 [13]: 10.7 µM (active)
AC50 [14]: 13.5 µM (active)
AC50 [15]: 3.91 µM (active)
AC50 [16]: 0.25 µM (active)
AC50 [17]: 2.05 µM (active)
AC50 [18]: 17 µM (active)
AC50 [19]: 42.1 µM (active)
AC50 (Paired box protein Pax-8): 2.92 µM (active)
AC50 [20]: 6.27 µM (active)
AC50 [21]: 4.37 µM (active)

SMILES: CC(C)(C)[C@@H]1C=C(C(=O)NCc2nc3ccccc3[nH]2)O[C@H](OCc2ccc(CO)cc2)C1
IC50 [7]: > 83.3 µM (inactive)
